Measurements as given in the supplement of paper PMC8612539.
In brackets after ≈: the same amount, converted by molar mass.

Tests used:
Enterococcus spp. = assay: minimum inhibitory concentration (MIC)
Protocol: (§1)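 Broth microdilution MIC (Sensititre BOPO7F bovine plate, CLSI methods) of 19 antimicrobials against field isolates of P. multocida, M. haemolytica, H. somni (deep nasopharyngeal swabs) and E. coli, Enterococcus spp. (rectal swabs) from weaned dairy heifers. Incubation 16-24 h at 35 C. MIC is the lowest concentration preventing visible growth. Values with <= or > lie at the tested range limits. Trimethoprim-sulfamethoxazole is given as the trimethoprim component of a 1:19 mixture.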

Histophilus somni = assay: minimum inhibitory concentration (MIC)
Protocol: as §1

CO/N=C(\C(=O)N[C@@H]1C(=O)N2C(C(=O)O)=C(CSC(=O)c3ccco3)CS[C@H]12)c1csc(N)n1 [Ceftiofur]
minimum inhibitory concentration [µg/mL]
Details | Enterococcus spp. | Histophilus somni
isolate (source animal id): 2 | > 8 | –
isolate (source animal id): 3 | – | ≤ 0.25
isolate (source animal id): 4 | – | ≤ 0.25
isolate (source animal id): 7 | – | ≤ 0.25
isolate (source animal id): 14 | – | ≤ 0.25
isolate (source animal id): 15 | – | ≤ 0.25
isolate (source animal id): 17 | – | ≤ 0.25
isolate (source animal id): 18 | – | ≤ 0.25
isolate (source animal id): 20 | – | ≤ 0.25
isolate (source animal id): 23 | – | ≤ 0.25
isolate (source animal id): 35 | > 8 | –
isolate (source animal id): 42 | 8 (≈ 15.3 µM) | –
isolate (source animal id): 44 | 2 (≈ 3.82 µM) | –
isolate (source animal id): 45 | – | ≤ 0.25
isolate (source animal id): 53 | – | ≤ 0.25
isolate (source animal id): 79 | 4 (≈ 7.64 µM) | –
isolate (source animal id): 83 | – | ≤ 0.25
isolate (source animal id): 88 | 0.5 (≈ 0.955 µM) | ≤ 0.25
isolate (source animal id): 91 | 0.5 (≈ 0.955 µM) | –
isolate (source animal id): 92 | > 8 | ≤ 0.25
isolate (source animal id): 93 | – | ≤ 0.25
isolate (source animal id): 99 | – | ≤ 0.25
isolate (source animal id): 100 | – | ≤ 0.25
isolate (source animal id): 105 | – | ≤ 0.25
isolate (source animal id): 107 | – | ≤ 0.25
isolate (source animal id): 108 | – | ≤ 0.25
isolate (source animal id): 109 | – | ≤ 0.25
isolate (source animal id): 110 | – | ≤ 0.25
isolate (source animal id): 111 | 0.5 (≈ 0.955 µM) | –
isolate (source animal id): 117 | – | ≤ 0.25
isolate (source animal id): 121 | – | ≤ 0.25
isolate (source animal id): 122 | > 8 | –
isolate (source animal id): 123 | > 8 | ≤ 0.25
isolate (source animal id): 124 | – | ≤ 0.25
isolate (source animal id): 127 | – | ≤ 0.25
isolate (source animal id): 128 | – | ≤ 0.25
isolate (source animal id): 130 | – | ≤ 0.25
isolate (source animal id): 132 | – | ≤ 0.25
isolate (source animal id): 133 | > 8 | –
isolate (source animal id): 135 | – | ≤ 0.25
isolate (source animal id): 140 | – | ≤ 0.25
isolate (source animal id): 141 | – | ≤ 0.25
isolate (source animal id): 142 | – | ≤ 0.25
isolate (source animal id): 144 | – | ≤ 0.25
isolate (source animal id): 146 | – | ≤ 0.25
isolate (source animal id): 147 | – | ≤ 0.25
isolate (source animal id): 151 | – | ≤ 0.25
isolate (source animal id): 153 | – | ≤ 0.25
isolate (source animal id): 154 | – | ≤ 0.25
isolate (source animal id): 156 | – | ≤ 0.25
isolate (source animal id): 157 | – | ≤ 0.25
isolate (source animal id): 158 | > 8 | –
isolate (source animal id): 168 | > 8 | –
isolate (source animal id): 169 | > 8 | –
isolate (source animal id): 171 | > 8 | –
isolate (source animal id): 175 | > 8 | –
isolate (source animal id): 176 | – | ≤ 0.25
isolate (source animal id): 177 | > 8 | –
isolate (source animal id): 181 | > 8 | –
isolate (source animal id): 182 | > 8 | –
isolate (source animal id): 183 | 4 (≈ 7.64 µM) | ≤ 0.25
isolate (source animal id): 186 | – | ≤ 0.25
isolate (source animal id): 187 | > 8 | –
isolate (source animal id): 190 | > 8 | –
isolate (source animal id): 194 | > 8 | –
isolate (source animal id): 195 | > 8 | –
isolate (source animal id): 196 | – | ≤ 0.25
isolate (source animal id): 197 | 4 (≈ 7.64 µM) | –
isolate (source animal id): 198 | – | ≤ 0.25
isolate (source animal id): 200 | – | ≤ 0.25
isolate (source animal id): 206 | – | ≤ 0.25
isolate (source animal id): 208 | – | ≤ 0.25
isolate (source animal id): 210 | – | ≤ 0.25
isolate (source animal id): 211 | > 8 | –
isolate (source animal id): 212 | – | ≤ 0.25
isolate (source animal id): 214 | 8 (≈ 15.3 µM) | –
isolate (source animal id): 215 | – | ≤ 0.25
isolate (source animal id): 216 | – | ≤ 0.25
isolate (source animal id): 218 | – | ≤ 0.25
isolate (source animal id): 219 | – | ≤ 0.25
isolate (source animal id): 222 | > 8 | –
isolate (source animal id): 223 | > 8 | –
isolate (source animal id): 224 | – | ≤ 0.25
isolate (source animal id): 228 | > 8 | ≤ 0.25
isolate (source animal id): 230 | > 8 | ≤ 0.25
isolate (source animal id): 233 | – | ≤ 0.25
isolate (source animal id): 235 | > 8 | –
isolate (source animal id): 236 | > 8 | –
isolate (source animal id): 238 | – | ≤ 0.25
isolate (source animal id): 239 | 2 (≈ 3.82 µM) | ≤ 0.25
isolate (source animal id): 241 | > 8 | ≤ 0.25
isolate (source animal id): 242 | – | ≤ 0.25
isolate (source animal id): 243 | – | ≤ 0.25
isolate (source animal id): 244 | > 8 | –
isolate (source animal id): 245 | – | ≤ 0.25
isolate (source animal id): 246 | > 8 | ≤ 0.25
isolate (source animal id): 247 | > 8 | ≤ 0.25
isolate (source animal id): 248 | – | ≤ 0.25
isolate (source animal id): 250 | > 8 | ≤ 0.25
isolate (source animal id): 251 | – | ≤ 0.25
isolate (source animal id): 252 | > 8 | ≤ 0.25
isolate (source animal id): 254 | – | ≤ 0.25
isolate (source animal id): 258 | – | ≤ 0.25
isolate (source animal id): 259 | – | ≤ 0.25
isolate (source animal id): 262 | – | ≤ 0.25
isolate (source animal id): 264 | – | ≤ 0.25
isolate (source animal id): 265 | – | ≤ 0.25
isolate (source animal id): 266 | – | ≤ 0.25
isolate (source animal id): 267 | – | ≤ 0.25
isolate (source animal id): 268 | 0.5 (≈ 0.955 µM) | –
isolate (source animal id): 269 | – | ≤ 0.25
isolate (source animal id): 271 | – | ≤ 0.25
isolate (source animal id): 272 | – | ≤ 0.25
isolate (source animal id): 274 | – | ≤ 0.25
isolate (source animal id): 276 | – | ≤ 0.25
isolate (source animal id): 278 | – | ≤ 0.25
isolate (source animal id): 280 | – | ≤ 0.25
isolate (source animal id): 281 | – | ≤ 0.25
isolate (source animal id): 282 | > 8 | –
isolate (source animal id): 283 | – | ≤ 0.25
isolate (source animal id): 285 | > 8 | –
isolate (source animal id): 288 | – | ≤ 0.25
isolate (source animal id): 289 | 8 (≈ 15.3 µM) | –
isolate (source animal id): 290 | 8 (≈ 15.3 µM) | –
isolate (source animal id): 291 | – | ≤ 0.25
isolate (source animal id): 292 | – | ≤ 0.25
isolate (source animal id): 296 | > 8 | ≤ 0.25
isolate (source animal id): 298 | ≤ 0.25 | –
isolate (source animal id): 301 | 8 (≈ 15.3 µM) | –
isolate (source animal id): 306 | – | ≤ 0.25
isolate (source animal id): 310 | > 8 | –
isolate (source animal id): 320 | 8 (≈ 15.3 µM) | –
isolate (source animal id): 331 | 2 (≈ 3.82 µM) | –
isolate (source animal id): 333 | 2 (≈ 3.82 µM) | –
isolate (source animal id): 336 | – | ≤ 0.25
isolate (source animal id): 337 | – | ≤ 0.25
isolate (source animal id): 341 | 2 (≈ 3.82 µM) | ≤ 0.25
